± gives the expanded uncertainty stated by the source.
Columns and labels:
[1] = molar heat capacity at saturation pressure
[2] = for vapor or sublimation pressure: Liquid; for Triple point temperature: Adiabatic calorimetry
[3] = Molar enthalpy of transition or fusion

C1CCC(SC2CCCCC2)CC1 [dicyclohexyl sulfide]
[1]
Conditions | molar heat capacity [J/K/mol]
5 K, Crystal 3 | 0.65 ± 0.02
7.076 K, Crystal 3, Vacuum adiabatic calorimetry | 1.83 ± 0.03
8.093 K, Crystal 3, Vacuum adiabatic calorimetry | 2.68 ± 0.03
9.092 K, Crystal 3, Vacuum adiabatic calorimetry | 3.7 ± 0.04
10 K, Crystal 3 | 4.79 ± 0.03
10.12 K, Crystal 3, Vacuum adiabatic calorimetry | 4.94 ± 0.06
11.22 K, Crystal 3, Vacuum adiabatic calorimetry | 6.32 ± 0.07
12.48 K, Crystal 3, Vacuum adiabatic calorimetry | 8.05 ± 0.07
13.88 K, Crystal 3, Vacuum adiabatic calorimetry | 10.26 ± 0.091
15 K, Crystal 3 | 12.08 ± 0.06
15.44 K, Crystal 3, Vacuum adiabatic calorimetry | 12.81 ± 0.1
17.17 K, Crystal 3, Vacuum adiabatic calorimetry | 15.8 ± 0.12
19.09 K, Crystal 3, Vacuum adiabatic calorimetry | 19.16 ± 0.12
20 K, Crystal 3 | 20.77 ± 0.07
21.2 K, Crystal 3, Vacuum adiabatic calorimetry | 22.91 ± 0.13
23.53 K, Crystal 3, Vacuum adiabatic calorimetry | 27.09 ± 0.14
25 K, Crystal 3 | 29.63 ± 0.083
26.12 K, Crystal 3, Vacuum adiabatic calorimetry | 31.54 ± 0.15
29 K, Crystal 3, Vacuum adiabatic calorimetry | 36.28 ± 0.14
30 K, Crystal 3 | 37.98 ± 0.07
32.2 K, Crystal 3, Vacuum adiabatic calorimetry | 41.46 ± 0.12
33.51 K, Crystal 3, Vacuum adiabatic calorimetry | 43.05 ± 0.13
35 K, Crystal 3 | 45.26 ± 0.07
35.74 K, Crystal 3, Vacuum adiabatic calorimetry | 46.49 ± 0.13
36 K, Crystal 3 | 46.79 ± 0.07
37 K, Crystal 3 | 48.49 ± 0.07
37.54 K, Crystal 3, Vacuum adiabatic calorimetry | 49.5 ± 0.14
38 K, Crystal 3 | 50.1 ± 0.083
39 K, Crystal 3 | 53.43 ± 0.12
39.08 K, Crystal 3, Vacuum adiabatic calorimetry | 53.4 ± 0.16
40 K, Crystal 3 | 59.33 ± 0.24
40.2 K, Crystal 3 | 61.57 ± 0.3
40.4 K, Crystal 3 | 65.04 ± 0.46
40.6 K, Crystal 3 | 70.56 ± 0.71
40.8 K, Crystal 3 | 79.24 ± 1.1
41 K, Crystal 3 | 92.56 ± 1.5
41.1 K, Crystal 3 | 101.56 ± 2
41.2 K, Crystal 3 | 112.49 ± 2.4
41.3 K, Crystal 3 | 125.67 ± 2.7
41.35 K, Crystal 2 | 132.62 ± 1.6
41.35 K, Crystal 3 | 132.62 ± 2.7
41.4 K, Crystal 2 | 124.85 ± 1.4
41.5 K, Crystal 2 | 113.3 ± 1.1
41.6 K, Crystal 2 | 103.72 ± 1.2
41.7 K, Crystal 2 | 95.82 ± 1.1
41.8 K, Crystal 2 | 89.37 ± 1.1
41.9 K, Crystal 2 | 84.14 ± 1
42 K, Crystal 2 | 79.94 ± 0.96
42.1 K, Crystal 2 | 76.58 ± 0.84
42.2 K, Crystal 2 | 73.92 ± 0.68
42.3 K, Crystal 2 | 71.85 ± 0.55
42.4 K, Crystal 2 | 70.24 ± 0.47
42.5 K, Crystal 2 | 68.99 ± 0.42
42.6 K, Crystal 2 | 68.04 ± 0.36
42.7 K, Crystal 2 | 67.3 ± 0.17
42.8 K, Crystal 2 | 66.72 ± 0.16
42.9 K, Crystal 2 | 66.27 ± 0.14
43 K, Crystal 2 | 65.89 ± 0.13
44 K, Crystal 2 | 63.21 ± 0.091
44.5 K, Crystal 2, Vacuum adiabatic calorimetry | 62.94 ± 0.17
45 K, Crystal 2 | 62.78 ± 0.083
45.83 K, Crystal 2, Vacuum adiabatic calorimetry | 62.98 ± 0.17
46 K, Crystal 2 | 63.03 ± 0.083
48 K, Crystal 2 | 64 ± 0.083
48.81 K, Crystal 2, Vacuum adiabatic calorimetry | 64.58 ± 0.17
50 K, Crystal 2 | 65.53 ± 0.091
53.62 K, Crystal 2, Vacuum adiabatic calorimetry | 68.84 ± 0.18
54.45 K, Crystal 2, Vacuum adiabatic calorimetry | 69.65 ± 0.18
55 K, Crystal 2 | 70.15 ± 0.091
58.57 K, Crystal 2, Vacuum adiabatic calorimetry | 73.26 ± 0.19
60 K, Crystal 2 | 74.51 ± 0.1
64.06 K, Crystal 2, Vacuum adiabatic calorimetry | 78.07 ± 0.2
70 K, Crystal 2 | 83.42 ± 0.11
70.24 K, Crystal 2, Vacuum adiabatic calorimetry | 83.65 ± 0.21
77.05 K, Crystal 2, Vacuum adiabatic calorimetry | 89.46 ± 0.22
80 K, Crystal 2 | 91.91 ± 0.12
82.72 K, Crystal 2, Vacuum adiabatic calorimetry | 94.2 ± 0.23
84.66 K, Crystal 2, Vacuum adiabatic calorimetry | 95.88 ± 0.23
89.87 K, Crystal 2, Vacuum adiabatic calorimetry | 100.11 ± 0.24
90 K, Crystal 2 | 100.24 ± 0.15
93.06 K, Crystal 2, Vacuum adiabatic calorimetry | 102.76 ± 0.3
98.25 K, Crystal 2, Vacuum adiabatic calorimetry | 106.88 ± 0.31
100 K, Crystal 2 | 108.32 ± 0.16
101.97 K, Crystal 2, Vacuum adiabatic calorimetry | 109.92 ± 0.31
107.36 K, Crystal 2, Vacuum adiabatic calorimetry | 114.09 ± 0.32
117.01 K, Crystal 2, Vacuum adiabatic calorimetry | 121.51 ± 0.32
120 K, Crystal 2 | 123.79 ± 0.17
126.84 K, Crystal 2, Vacuum adiabatic calorimetry | 128.96 ± 0.33
136.8 K, Crystal 2, Vacuum adiabatic calorimetry | 136.33 ± 0.33
140 K, Crystal 2 | 138.69 ± 0.17
146.83 K, Crystal 2, Vacuum adiabatic calorimetry | 143.7 ± 0.34
156.79 K, Crystal 2, Vacuum adiabatic calorimetry | 151.02 ± 0.35
160 K, Crystal 2 | 153.38 ± 0.17
167.83 K, Crystal 2, Vacuum adiabatic calorimetry | 159.16 ± 0.36
179.9 K, Crystal 2, Vacuum adiabatic calorimetry | 168.19 ± 0.37
180 K, Crystal 2 | 168.28 ± 0.18
192 K, Crystal 2, Vacuum adiabatic calorimetry | 177.65 ± 0.37
200 K, Crystal 2 | 184.16 ± 0.19
204.1 K, Crystal 2, Vacuum adiabatic calorimetry | 187.6 ± 0.39
212.64 K, Crystal 2, Vacuum adiabatic calorimetry | 194.77 ± 0.4
216.18 K, Crystal 2, Vacuum adiabatic calorimetry | 197.93 ± 0.4
220 K, Crystal 2 | 201.6 ± 0.2
223.24 K, Crystal 2, Vacuum adiabatic calorimetry | 204.46 ± 0.41
227.23 K, Crystal 2, Vacuum adiabatic calorimetry | 208.11 ± 0.41
229.69 K, Crystal 2, Vacuum adiabatic calorimetry | 210.53 ± 0.41
233.56 K, Crystal 2, Vacuum adiabatic calorimetry | 214.23 ± 0.42
239.46 K, Crystal 2, Vacuum adiabatic calorimetry | 220.49 ± 0.42
240 K, Crystal 2 | 221.21 ± 0.21
243.62 K, Crystal 2, Vacuum adiabatic calorimetry | 224.96 ± 0.42
245.76 K, Crystal 2, Vacuum adiabatic calorimetry | 227.13 ± 0.42
249.49 K, Crystal 2, Vacuum adiabatic calorimetry | 232.29 ± 0.43
250 K, Crystal 2 | 231.72 ± 0.22
252.11 K, Crystal 2, Vacuum adiabatic calorimetry | 235.33 ± 0.44
255.1 K, Crystal 2, Vacuum adiabatic calorimetry | 241.32 ± 0.45
255.37 K, Crystal 2, Vacuum adiabatic calorimetry | 242.85 ± 0.45
256.11 K, Crystal 2, Vacuum adiabatic calorimetry | 244.36 ± 0.45
258.04 K, Crystal 2, Vacuum adiabatic calorimetry | 251.78 ± 0.47
258.75 K, Crystal 2, Vacuum adiabatic calorimetry | 257.57 ± 0.48
260 K, Crystal 2 | 264.46 ± 0.26
264.7 K, Crystal 1 | 315.22 ± 0.26
264.7 K, Crystal 2 | 316.1 ± 0.34
267.11 K, Crystal 1, Vacuum adiabatic calorimetry | 316.81 ± 0.52
270 K, Crystal 1 | 318.74 ± 0.26
270.5 K, Crystal 1, Vacuum adiabatic calorimetry | 319.58 ± 0.52
270.99 K, Crystal 1, Vacuum adiabatic calorimetry | 319.82 ± 0.52
272.57 K, Crystal 1, Vacuum adiabatic calorimetry | 320.97 ± 0.52
274.72 K, Crystal 1, Vacuum adiabatic calorimetry | 322.6 ± 0.52
275.18 K, Crystal 1, Vacuum adiabatic calorimetry | 322.61 ± 0.52
276.68 K, Crystal 1, Vacuum adiabatic calorimetry | 324.34 ± 0.52
277.72 K, Crystal 1, Vacuum adiabatic calorimetry | 325.42 ± 0.52
278.97 K, Crystal 1, Vacuum adiabatic calorimetry | 327.22 ± 0.53
280 K, Crystal 1 | 325.48 ± 0.27
284.2 K, Crystal 1 | 328.37 ± 0.27
284.2 K, Liquid | 317.32 ± 0.26
298.15 K, Liquid | 326.14 ± 0.27
300 K, Liquid | 327.33 ± 0.27
320 K, Liquid | 340.79 ± 0.27
340 K, Liquid | 354.76 ± 0.27
360 K, Liquid | 369.3 ± 0.28
380 K, Liquid | 384.16 ± 0.29
400 K, Liquid | 399.24 ± 0.3
420 K, Liquid | 414.4 ± 0.31
440 K, Liquid | 429.57 ± 0.32

[1], Liquid, Vacuum adiabatic calorimetry
Conditions | molar heat capacity [J/K/mol]
287.6 K | 319.48 ± 0.52
289.37 K | 320.58 ± 0.52
290.6 K | 321.35 ± 0.52
296.18 K | 324.86 ± 0.52
296.81 K | 325.28 ± 0.52
307.92 K | 332.58 ± 0.53
321.65 K | 341.93 ± 0.54
336.79 K | 352.46 ± 0.55
352.3 K | 363.66 ± 0.56
367.76 K | 375.02 ± 0.57
383 K | 386.42 ± 0.59
398.09 K | 397.79 ± 0.6
413.1 K | 409.16 ± 0.61
428.06 K | 420.5 ± 0.62
439.99 K | 429.5 ± 0.63

Conditions | Molar enthalpy of transition or fusion [kJ/mol] | Triple point temperature [K] | vapor or sublimation pressure [kPa]
[2], 334.98 K | – | – | 0.0195 ± 0.0005
[2], 344.99 K | – | – | 0.0387 ± 0.0005
[2], 354.98 K | – | – | 0.073 ± 0.0006
[2], 364.98 K | – | – | 0.1323 ± 0.0006
[2], 374.98 K | – | – | 0.2307 ± 0.0007
[2], 384.97 K | – | – | 0.3883 ± 0.0008
[2], 394.98 K | – | – | 0.6338 ± 0.001
[2], 404.98 K | – | – | 1.004 ± 0.0014
[2], 414.96 K | – | – | 1.546 ± 0.0018
[2], 419.97 K | – | – | 1.902 ± 0.0022
[2], 424.96 K | – | – | 2.324 ± 0.0025
[2], 429.96 K | – | – | 2.825 ± 0.0028
[2], Crystal 1 | – | 284.2 ± 0.05 | –
[2], Crystal 2 | – | 264.7 ± 0.05 | –
[2], Crystal 3 | – | 41.35 ± 0.1 | –
[3], Crystal 1 | 5.682 ± 0.011 | – | –
[3], Crystal 2 | 10.01 ± 0.011 | – | –

— the NIST ThermoML archive (doi:10.1016/j.jct.2003.11.012)
